Where “and” joins values, the source holds several entries; their conditions need not be identical. Equal values may be shown once. No end group written: not given here.
System: PHKs
Experiment: CXCL8 expression in PHKs (qRT-PCR, normalized to actin)
Type: cell-based, human
Conditions: for CXCL8 expression normalized to actin / CXCL8 induction by S. epidermidis CM with added peptide: PHKs; for CXCL8 expression normalized to actin / induction of CXCL8 expression in PHKs / CXCL8 induction by S. epidermidis CM with added peptide: 5 h; for induction of CXCL8 expression in PHKs: single treatment, 2 µM human AMPs or lugdunin, 0.8 µM (pro)-gallidermin or nisin
Protocol: Fig. 1 Lugdunin sensitizes epithelial cells for innate immune defense. a Primary human keratinocytes (PHKs) were pretreated with S. epidermidis conditioned medium (CM), indicated lugdunin concentrations, or the combination of both for 20 h. Subsequently, cells were infected with S. aureus for 1.5 h followed by cell lysis and determination of colony-forming units (CFUs). Shown is one representative experiment of three independent experiments with six technical replicates ± s.e.m. n.s., not significant. b Dorsal skin of mice was pretreated with S. epidermidis CM, 1.5 µg lugdunin alone or in combination with S. epidermidis CM for 24 h. Subsequently, S. aureus CFUs were determined. Horizontal lines represent the mean of each group ± s.e.m. c PHKs were treated with 2 μM lugdunin or with S. epidermidis CM alone or in combination for 20 h and subsequently expression of indicated antimicrobial peptides (AMPs) (respective protein names in brackets) was analyzed and normalized to actin. Shown is one representative experiment of three independent experiments with two technical replicates ± s.e.m. d PHKs were treated with 2 µM lugdunin or 100 ng/mL Pam2Cys for 5 h and subsequently the concentration of indicated cytokines in the supernatant was analyzed by LEGENDplex^TM (BioLegend). Shown is one representative experiment of three independent experiments with two technical replicates ± s.e.m. e PHKs were treated with increasing concentrations of lugdunin or 100 ng/mL Pam2Cys or Pam3Cys for 5 h and subsequently expression of chemokine (C-X-C motif) ligand 8 (CXCL8) was analyzed and normalized to actin. Shown is one representative experiment of three independent experiments, each with two technical replicates ± s.e.m. f, g Indicated cells were treated with 2 µM lugdunin or 100 ng/mL Pam2Cys as a positive control for 5 h and subsequently the concentration of CXCL8 (f) and interleukin-1α (IL-1α) (g) in the supernatant was analyzed by LEGENDplex^TM (BioLegend) and enzyme-linked immunosorbent assay (ELISA) (R&D Systems). Shown is one representative experiment of three independent experiments with two technical replicates ± s.e.m. Significant differences to control treatments were analyzed by ordinary one-way analysis of variance (ANOVA) followed by Dunnett’s multiple comparisons test (*P < 0.05; **P < 0.01; ***P < 0.001; ****P < 0.0001). n.d. = not detected. Source data are provided as a Source Data file
Fig. 4 Lugdunin amplifies the commensal-induced chemokine (C-X-C motif) ligand (CXCL8) induction. a Primary human keratinocytes (PHKs) were either treated with 2 μM of human antimicrobial peptides (AMPs) (black bars) or lugdunin (blue bars), or 0.8 μM (pro)-gallidermin or nisin (black bars), or in combination with S. epidermidis conditioned medium (CM) (gray and red striped bars) for 5 h, and subsequently expression of CXCL8 was analyzed and normalized to actin. Shown is one representative experiment of three independent experiments with two technical replicates ± s.e.m. b PHKs were treated with 2 μM human AMPs, 2 μM lugdunin, 0.8 μM of the other bacteriocins (gray bars) or the correspondent peptide combinations (white bars), or 50 ng/mL Pam2Cys, 10 ng/mL IL-1α, or S. epidermidis CM as controls (black bars), for 5 h and subsequently expression of CXCL8 was analyzed and normalized to actin. Shown is one representative experiment of three independent experiments with two technical replicates ± s.e.m. Significant differences to control treatments were analyzed by ordinary one-way analysis of variance (ANOVA) followed by Dunnett’s multiple comparisons test (***P < 0.001; ****P < 0.0001). Source data are provided as a Source Data file
After 5 h or 20 h of peptide treatment, PHKs were washed once with PBS, followed by the addition of RNA lysis buffer directly into the well. Total RNA was extracted using the Nucleospin RNA Kit (Macherey-Nagel) according to the manufacturer’s protocol. […]

[1] = 2 µM human AMPs, 2 µM lugdunin, 0.8 µM other bacteriocins or their combinations, 50 ng/mL Pam2Cys, 10 ng/mL IL-1α, S. epidermidis CM, two technical replicates, Fig 4b
[2] = peptide (2 µM human AMPs or lugdunin, 0.8 µM gallidermin or nisin) in combination with S. epidermidis CM, two technical replicates, Fig 4a
[3] = single treatment: 2 µM human AMPs or lugdunin, 0.8 µM (pro)-gallidermin or nisin, or S. epidermidis CM, M = 1, two technical replicates (rows), Fig 4a

Substance	CXCL8 expression normalized to actin [1]	CXCL8 expression normalized to actin [2]	CXCL8 expression normalized to actin [3]	induction of CXCL8 expression in PHKs (S. epidermidis CM, Fig 4a)	CXCL8 induction by S. epidermidis CM with added peptide (Fig 4a)	CXCL8 expression normalized to actin (lugdunin 0.5 µM, medium = 1, technical replicates, Fig 1e)	CXCL8 expression normalized to actin (lugdunin 1 µM, technical replicates, Fig 1e)	CXCL8 expression normalized to actin (lugdunin 2 µM, technical replicates, Fig 1e)	CXCL8 expression normalized to actin (lugdunin 3 µM, technical replicates, Fig 1e)	CXCL8 expression normalized to actin (lugdunin 5 µM, technical replicates, Fig 1e)	CXCL8 expression normalized to actin (lugdunin 10 µM, technical replicates, Fig 1e)	lugdunin concentrations that induced expression and release of CXCL8 in PHKs (higher concentrations did not induce CXCL8 production, text to Fig 1d, e)
SSLLEKGLDGAKKAVGGLGKLGKDAVEDLESVGKGAVHDVKDVLDSV [DCD-1, dermcidin-derived human AMP of eccrine sweat glands]	13.37 and 13.02	61.3666 and 64.6468	13.02 and 13.37	10 fold								
IASKFLCTPGCAKTGSFNSYCC (also: bicyclic or more (positions not given here)) [Gallidermin, bacteriocin isolated from Staphylococcus gallinarum]	3.22 and 3.395	2.713 and 2.789		not able to induce CXCL8 expression	completely blocked							
ITSISLCTPGCKTGALMGCNMKTATCHCSIHVSK (not fully specified (bridges); also: lanthionine rings, places not given here) [Nisin, bacteriocin of Lactococcus lactis, purchased from Sigma]	3.325 and 3.22	88.3403 and 93.3773		not able to induce CXCL8 expression	non-significant increase							
Lugdunin	43.47 and 44.695	1093.7 and 1265.07	44.695 and 43.47	over 40 fold	over 1000 fold	1.93 and 1.44 and 0.406 and 0.518	10.23 and 9.29 and 0.973 and 1.087	43.4456 and 47.5424 and 22.549 and 29.548	64.669 and 66.487	11.7628 and 11.128	2.0508 and 6.298	up to 3 µM
MEAVKEKNELFDLDVKVNAKESNDSGAEPRIASKFLCTPGCAKTGSFNSYCC [Pro-Gallidermin, non-bactericidal pro-form of gallidermin]	3.465 and 3.43											
LLGDFFRKSKEKIGKEFKRIVQRIKDFLRNLVPRTES [LL-37, human cathelicidin AMP]	1.54 and 1.645	38.5859 and 33.1285		not able to induce CXCL8 expression								
SSLLEKGLDGAKKAVGGLGKLGKDAVEDLESVGKGAVHDVKDVLDSVL [DCD-1L, dermcidin-derived human AMP of eccrine sweat glands]	2.31 and 2.52	45.0983 and 49.3507	2.52 and 2.31									

— publication PMC6588697, “Lugdunin amplifies innate immune responses in the skin in synergy with host- and microbiota-derived factors” (Nature Communications, 2019)
